How the values were obtained:
Format in all cases: in vivo
Cyperus difformis = test: Test Example 3: herbicidal effect by application to foliage (Wagner pot, water depth 0.1-0.5 cm); settings: Nineteenth Table; application to foliage; application herbicide amount 320 g/ha
Summary of the method: (§1)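 Foliar spray, 14-day-old plants, emulsion diluted to target g/ha; rated 3 wk post-application, 0–5 scale (0 ≤5%, 5 ≥90% herbicidal ratio). Greenhouse 25–30 °C, alluvial soil.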

[1] = tested on: Echinochloa crus-galli var. crus-galli; test: as above; settings: Nineteenth Table; application to foliage; application herbicide amount 320 g/ha
Summary of the method: as §1

Leptochloa chinensis = test: as above; settings: Nineteenth Table; application to foliage; application herbicide amount 320 g/ha
Summary of the method: as §1

Abutilon theophrasti = test: Test Example 4: herbicidal effect by application to foliage (diluvial soil, plastic box); settings: for M: herbicidal effect on Abutilon theophrasti: application to foliage, application herbicide amount 320 g/ha
Summary of the method: (§2)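 Emulsion-formulated compound, diluted to a predetermined g/ha dose, applied by small sprayer to leaves and stems of 14-day-old seedlings grown in sterilized diluvial soil. Effect rated on 0–5 herbicidal-ratio scale three weeks on.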

Alopecurus myosuroides = test: as above; settings: for J: herbicidal effect on Alopecurus myosuroides: application to foliage, application herbicide amount 320 g/ha
Summary of the method: as §2

Amaranthus retroflexus = test: as above; settings: for N: herbicidal effect on Amaranthus retroflexus: application to foliage, application herbicide amount 320 g/ha
Summary of the method: as §2

Apera spica-venti. = test: as above; settings: for L: herbicidal effect on Apera spica-venti.: application to foliage, application herbicide amount 320 g/ha
Summary of the method: as §2

Avena fatua = test: as above; settings: for I: herbicidal effect on Avena fatua: application to foliage, application herbicide amount 320 g/ha
Summary of the method: as §2

Chenopodium album = test: as above; settings: for O: herbicidal effect on Chenopodium album: application to foliage, application herbicide amount 320 g/ha
Summary of the method: as §2

Digitaria ciliaris = test: as above; settings: for F: herbicidal effect on Digitaria ciliaris: application to foliage, application herbicide amount 320 g/ha
Summary of the method: as §2

[2] = tested on: Echinochloa crus-galli var. crus-galli; test: as above; settings: for H: herbicidal effect on Echinochloa crus-galli var. crus-galli: application to foliage, application herbicide amount 320 g/ha
Summary of the method: as §2

Galium spurium = test: as above; settings: for Q: herbicidal effect on Galium spurium: application to foliage, application herbicide amount 320 g/ha
Summary of the method: as §2

Lolium multiflorum Lam. = test: as above; settings: for K: herbicidal effect on Lolium multiflorum Lam.: application to foliage, application herbicide amount 320 g/ha
Summary of the method: as §2

Setaria viridis = test: as above; settings: for G: herbicidal effect on Setaria viridis: application to foliage, application herbicide amount 320 g/ha
Summary of the method: as §2

Veronica persica = test: as above; settings: for R: herbicidal effect on Veronica persica: application to foliage, application herbicide amount 320 g/ha
Summary of the method: as §2

[3] = tested on: Beta vulgaris ssp. vulgaris; test: Test Example 4: effect on crop by application to foliage (diluvial soil, plastic box); settings: for f: effect on crop, Beta vulgaris ssp. vulgaris: application to foliage, application herbicide amount 320 g/ha
Summary of the method: as §2

Brassica campestris L. = test: as above; settings: for g: effect on crop, Brassica campestris L.: application to foliage, application herbicide amount 320 g/ha
Summary of the method: as §2

Glycine max = test: as above; settings: for d: effect on crop, Glycine max: application to foliage, application herbicide amount 320 g/ha
Summary of the method: as §2

Triticum aestivum = test: as above; settings: for e: effect on crop, Triticum aestivum: application to foliage, application herbicide amount 320 g/ha
Summary of the method: as §2

Zea mays = test: as above; settings: for c: effect on crop, Zea mays: application to foliage, application herbicide amount 320 g/ha
Summary of the method: as §2

[4] = tested on: directly sowed Oryza sativa; test: as above; settings: for b: effect on crop, directly sowed Oryza sativa: application to foliage, application herbicide amount 320 g/ha
Summary of the method: as §2

O=C(Nc1nnco1)c1ccc(C(F)(F)F)n2c(SC3CCCC3)nnc12 [1-155]
E (herbicidal effect grade) (Cyperus difformis): 5 (Herbicidal ratio of 90% or more (almost completely withered))
H (herbicidal effect grade) [1]: 1 (Herbicidal ratio of 5% or more and less than 20%)
D (herbicidal effect grade) (Leptochloa chinensis): 2 (Herbicidal ratio of 20% or more and less than 40%)
M: herbicidal effect on Abutilon theophrasti (Abutilon theophrasti): 3 (Herbicidal ratio of 40% or more and less than 70%)
J: herbicidal effect on Alopecurus myosuroides (Alopecurus myosuroides): 0 (Herbicidal ratio of 5% or less (almost no effect))
N: herbicidal effect on Amaranthus retroflexus (Amaranthus retroflexus): 3 (Herbicidal ratio of 40% or more and less than 70%)
L: herbicidal effect on Apera spica-venti. (Apera spica-venti.): 0 (Herbicidal ratio of 5% or less (almost no effect))
I: herbicidal effect on Avena fatua (Avena fatua): 0 (Herbicidal ratio of 5% or less (almost no effect))
O: herbicidal effect on Chenopodium album (Chenopodium album): 5 (Herbicidal ratio of 90% or more (almost completely withered))
F: herbicidal effect on Digitaria ciliaris (Digitaria ciliaris): 3 (Herbicidal ratio of 40% or more and less than 70%)
H: herbicidal effect on Echinochloa crus-galli var. crus-galli [2]: 3 (Herbicidal ratio of 40% or more and less than 70%)
Q: herbicidal effect on Galium spurium (Galium spurium): 0 (Herbicidal ratio of 5% or less (almost no effect))
K: herbicidal effect on Lolium multiflorum Lam. (Lolium multiflorum Lam.): 0 (Herbicidal ratio of 5% or less (almost no effect))
G: herbicidal effect on Setaria viridis (Setaria viridis): 1 (Herbicidal ratio of 5% or more and less than 20%)
R: herbicidal effect on Veronica persica (Veronica persica): 2 (Herbicidal ratio of 20% or more and less than 40%)
f: effect on crop, Beta vulgaris ssp. vulgaris [3]: 5 (Herbicidal ratio of 90% or more (almost completely withered))
g: effect on crop, Brassica campestris L. (Brassica campestris L.): 0 (Herbicidal ratio of 5% or less (almost no effect))
d: effect on crop, Glycine max (Glycine max): 3 (Herbicidal ratio of 40% or more and less than 70%)
e: effect on crop, Triticum aestivum (Triticum aestivum): 0 (Herbicidal ratio of 5% or less (almost no effect))
c: effect on crop, Zea mays (Zea mays): 0 (Herbicidal ratio of 5% or less (almost no effect))
b: effect on crop, directly sowed Oryza sativa [4]: 0 (Herbicidal ratio of 5% or less (almost no effect))

CC(C)c1nnc2c(C(=O)Nc3nnnn3C)ccc(C(F)(F)C(F)(F)F)n12 [2-049]
E (herbicidal effect grade) (Cyperus difformis): 5 (Herbicidal ratio of 90% or more (almost completely withered))
H (herbicidal effect grade) [1]: 5 (Herbicidal ratio of 90% or more (almost completely withered))
D (herbicidal effect grade) (Leptochloa chinensis): 5 (Herbicidal ratio of 90% or more (almost completely withered))
M (Abutilon theophrasti) herbicidal effect grade (Abutilon theophrasti; foliage application, 320 g/ha): 4 (Herbicidal ratio of 70% or more and less than 90%)
J (Alopecurus myosuroides) herbicidal effect grade (Alopecurus myosuroides; foliage application, 320 g/ha): 1 (Herbicidal ratio of 5% or more and less than 20%)
N (Amaranthus retroflexus) herbicidal effect grade (Amaranthus retroflexus; foliage application, 320 g/ha): 3 (Herbicidal ratio of 40% or more and less than 70%)
L (Apera spica-venti.) herbicidal effect grade (Apera spica-venti.; foliage application, 320 g/ha): 4 (Herbicidal ratio of 70% or more and less than 90%)
I (Avena fatua) herbicidal effect grade (Avena fatua; foliage application, 320 g/ha): 3 (Herbicidal ratio of 40% or more and less than 70%)
O (Chenopodium album) herbicidal effect grade (Chenopodium album; foliage application, 320 g/ha): 5 (Herbicidal ratio of 90% or more (almost completely withered))
F (Digitaria ciliaris) herbicidal effect grade (Digitaria ciliaris; foliage application, 320 g/ha): 5 (Herbicidal ratio of 90% or more (almost completely withered))
H (Echinochloa crus-galli var. crus-galli) herbicidal effect grade ([2]; foliage application, 320 g/ha): 5 (Herbicidal ratio of 90% or more (almost completely withered))
Q (Galium spurium) herbicidal effect grade (Galium spurium; foliage application, 320 g/ha): 3 (Herbicidal ratio of 40% or more and less than 70%)
K (Lolium multiflorum Lam.) herbicidal effect grade (Lolium multiflorum Lam.; foliage application, 320 g/ha): 3 (Herbicidal ratio of 40% or more and less than 70%)
G (Setaria viridis) herbicidal effect grade (Setaria viridis; foliage application, 320 g/ha): 5 (Herbicidal ratio of 90% or more (almost completely withered))
R (Veronica persica) herbicidal effect grade (Veronica persica; foliage application, 320 g/ha): 4 (Herbicidal ratio of 70% or more and less than 90%)
f (Beta vulgaris ssp. vulgaris) effect on crop grade ([3]; foliage application, 320 g/ha): 4 (Herbicidal ratio of 70% or more and less than 90%)
g (Brassica campestris L.) effect on crop grade (Brassica campestris L.; foliage application, 320 g/ha): 3 (Herbicidal ratio of 40% or more and less than 70%)
c (Glycine max) effect on crop grade (Glycine max; foliage application, 320 g/ha): 1 (Herbicidal ratio of 5% or more and less than 20%)
e (Triticum aestivum) effect on crop grade (Triticum aestivum; foliage application, 320 g/ha): 0 (Herbicidal ratio of 5% or less (almost no effect))
b (Zea mays) effect on crop grade (Zea mays; foliage application, 320 g/ha): 2 (Herbicidal ratio of 20% or more and less than 40%)
d (directly sowed Oryza sativa) effect on crop grade ([4]; foliage application, 320 g/ha): 4 (Herbicidal ratio of 70% or more and less than 90%)

O=C(Nc1nnco1)c1ccc(C(F)(F)F)n2c(SCc3ccc(Cl)nc3)nnc12 [1-157]
E (herbicidal effect grade) (Cyperus difformis): 4 (Herbicidal ratio of 70% or more and less than 90%)
H (herbicidal effect grade) [1]: 4 (Herbicidal ratio of 70% or more and less than 90%)
D (herbicidal effect grade) (Leptochloa chinensis): 3 (Herbicidal ratio of 40% or more and less than 70%)
M: herbicidal effect on Abutilon theophrasti (Abutilon theophrasti): 3 (Herbicidal ratio of 40% or more and less than 70%)
J: herbicidal effect on Alopecurus myosuroides (Alopecurus myosuroides): 1 (Herbicidal ratio of 5% or more and less than 20%)
N: herbicidal effect on Amaranthus retroflexus (Amaranthus retroflexus): 3 (Herbicidal ratio of 40% or more and less than 70%)
L: herbicidal effect on Apera spica-venti. (Apera spica-venti.): 1 (Herbicidal ratio of 5% or more and less than 20%)
I: herbicidal effect on Avena fatua (Avena fatua): 1 (Herbicidal ratio of 5% or more and less than 20%)
O: herbicidal effect on Chenopodium album (Chenopodium album): 5 (Herbicidal ratio of 90% or more (almost completely withered))
F: herbicidal effect on Digitaria ciliaris (Digitaria ciliaris): 3 (Herbicidal ratio of 40% or more and less than 70%)
H: herbicidal effect on Echinochloa crus-galli var. crus-galli [2]: 3 (Herbicidal ratio of 40% or more and less than 70%)
Q: herbicidal effect on Galium spurium (Galium spurium): 1 (Herbicidal ratio of 5% or more and less than 20%)
K: herbicidal effect on Lolium multiflorum Lam. (Lolium multiflorum Lam.): 1 (Herbicidal ratio of 5% or more and less than 20%)
G: herbicidal effect on Setaria viridis (Setaria viridis): 1 (Herbicidal ratio of 5% or more and less than 20%)
R: herbicidal effect on Veronica persica (Veronica persica): 2 (Herbicidal ratio of 20% or more and less than 40%)
f: effect on crop, Beta vulgaris ssp. vulgaris [3]: 4 (Herbicidal ratio of 70% or more and less than 90%)
g: effect on crop, Brassica campestris L. (Brassica campestris L.): 2 (Herbicidal ratio of 20% or more and less than 40%)
d: effect on crop, Glycine max (Glycine max): 3 (Herbicidal ratio of 40% or more and less than 70%)
e: effect on crop, Triticum aestivum (Triticum aestivum): 1 (Herbicidal ratio of 5% or more and less than 20%)
c: effect on crop, Zea mays (Zea mays): 0 (Herbicidal ratio of 5% or less (almost no effect))
b: effect on crop, directly sowed Oryza sativa [4]: 0 (Herbicidal ratio of 5% or less (almost no effect))
